Tests used:
Assay in all cases: competitive isoTOP-ABPP
Format in all cases: binding
[1] = biological target: T1, KIAA1967 DBIRD complex subunit KIAA1967 (Homo sapiens, UniProt Q8N163); settings: for R value (DMSO/fragment) for probe 1 labeling / isoTOP-ABPP ratio (R) at liganded lysine Q8N163_K97 / isoTOP-ABPP ratio (R) at liganded lysine Q8N163_K112: 50 uM, in vitro; for R value (DMSO/fragment) for probe 1 labeling: 231 sol; for isoTOP-ABPP ratio (R) at liganded lysine Q8N163_K97 / isoTOP-ABPP ratio (R) at liganded lysine Q8N163_K112: sol, 231
T1 construct: isoTOP-ABPP experiments performed in cell lysates (in vitro); endogenous in cells; host or cells: soluble proteome of human cancer cell lines (MDA-MB-231; Ramos and Jurkat also prepared)
T1 sequence (Q8N163 whole entry, the tested form may be a part, one chain of several): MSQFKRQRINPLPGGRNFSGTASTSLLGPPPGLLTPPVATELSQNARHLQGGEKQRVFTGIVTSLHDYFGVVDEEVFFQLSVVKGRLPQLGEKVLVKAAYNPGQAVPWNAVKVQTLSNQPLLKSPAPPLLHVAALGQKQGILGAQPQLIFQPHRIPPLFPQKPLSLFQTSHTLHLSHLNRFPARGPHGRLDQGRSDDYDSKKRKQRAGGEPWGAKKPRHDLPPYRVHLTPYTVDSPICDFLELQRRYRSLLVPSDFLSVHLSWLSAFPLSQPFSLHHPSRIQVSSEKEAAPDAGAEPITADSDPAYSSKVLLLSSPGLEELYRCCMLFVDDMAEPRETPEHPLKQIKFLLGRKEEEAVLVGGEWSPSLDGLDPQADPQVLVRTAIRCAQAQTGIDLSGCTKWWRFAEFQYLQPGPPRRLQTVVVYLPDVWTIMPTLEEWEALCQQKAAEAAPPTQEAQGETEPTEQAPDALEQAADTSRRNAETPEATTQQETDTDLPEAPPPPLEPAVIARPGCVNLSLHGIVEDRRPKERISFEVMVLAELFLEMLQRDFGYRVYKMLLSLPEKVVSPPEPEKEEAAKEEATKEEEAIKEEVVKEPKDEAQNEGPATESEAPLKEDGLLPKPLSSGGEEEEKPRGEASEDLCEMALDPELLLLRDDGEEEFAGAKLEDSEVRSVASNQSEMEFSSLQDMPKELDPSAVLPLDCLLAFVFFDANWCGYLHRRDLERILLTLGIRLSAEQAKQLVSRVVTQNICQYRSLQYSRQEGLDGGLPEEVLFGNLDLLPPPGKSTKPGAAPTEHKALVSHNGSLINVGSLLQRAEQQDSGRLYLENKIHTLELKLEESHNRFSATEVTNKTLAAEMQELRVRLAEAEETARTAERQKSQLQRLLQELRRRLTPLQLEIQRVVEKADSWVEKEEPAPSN
Experimental: (§1) In vitro covalent fragment treatment for isoTOP-ABPP. All compounds were made up as solutions in DMSO (100×) and were used at a final concentration of 50 μM for activated esters and 100 μM for guanidinylating agents. For each profiling sample, 0.5 ml of lysate was treated with 5 μl of the 100× compound stock solution or 5 μl of DMSO. Samples were treated with activated esters for
(§2) STP-alkyne labeling and click chemistry. For concentration-dependent reactivity measurements by isoTOP-ABPP, 0.5 ml proteome aliquots were treated at ambient temperature with 1 mM STP-alkyne 1 (5 μl of 100 mM stock in DMSO) and 0.1 mM STP alkyne 1 (5 μl of 10 mM stock in DMSO), respectively. For competitive isoTOP-ABPP, after in vitro fragment treatment (detailed above), the samples were labeled for 1 h at ambient temperature with 0.1 mM STP-alkyne 1 (5 μl of 10 mM stock in DMSO). Samples were conjugated by copper-mediated azide-alkyne cycloaddition (CuAAC) to either the light (1 mM STP-alkyne or fragment treated) or heavy (0.1 mM STP-alkyne or DMSO treated) TEV tags (10 μl of 5 mM stocks in DMSO, final concentration=100 μM) using tris(2-carboxyethyl)phosphine hydrochloride
(§3) R value calculation and processing. The ratios of light and heavy MS1 peaks for each unique peptide were quantified with a CIMAGE software using default parameters (3 MS1 acquisitions per peak and signal to noise threshold set to 2.5). For reactivity measurements by isoTOP-ABPP, the R value was calculated from the ratio of MS1 peak areas, comparing the 1 mM STP alkyne sample (light TEV tag) with the 0.1 mM STP alkyne sample (heavy TEV tag). For competitive isoTOP-ABPP, the R value was calculated from the ratio of MS1 peak areas, comparing the DMSO treated sample (heavy TEV tag) with the compound treated sample (light TEV tag). […] Ratios for unique peptide entries are calculated for each experiment; overlapping peptides with the same modified lysine (for example, different charge states, MudPIT chromatographic steps or tryptic termini) are grouped together and the median ratio is reported as the final ratio (R). The peptide ratios reported by CIMAGE were further filtered to ensure the removal or correction of low-quality ratios in each individual data set. The quality filters applied were the following: removal of half tryptic peptides; for ratios with high standard deviations from the median (90% of the median or above) the lowest ratio was taken instead of the median; removal of peptides with R=20 and only a single MS2 event triggered during the elution of the parent ion; manual annotation of all the peptides with ratios of 20, removing any peptides with low quality elution profiles that remained after the previous curation steps (only done for competitive isoTOP-ABPP).
(§4) Cross-data processing for fragment screening. For compound treated samples, biological replicates of the same condition were averaged, if the standard deviation was below 60% of the mean; otherwise, for lysines with at least one R value <4 for a particular compound, the lowest value of the ratio set was taken. For lysines, where all R values for a particular compound were ≥4, the average was reported. For peptides containing several possible modified lysines, the lysine with the highest number of quantification events was used for analysis and the remaining, redundant peptides were reported as alternative modification sites. Peptides included in the aggregate dataset (those used for further bioinformatics and statistical analyses) were required to have been quantified in 2 experiments for competitive isoTOP-ABPP. Lysines were categorized as liganded, if they had at least one ratio R≥4 (hit fragments). For liganded lysines with R=20 for all liganding events, lysines were required to have been quantified with R=20 in two separate experiments and were further required to have been quantified with R<20 in one additional experiment.

[2] = biological target: T2, MRPS24 28S ribosomal protein S24, mitochondrial (Homo sapiens, UniProt Q96EL2); settings: 50 uM, in vitro; for isoTOP-ABPP ratio (R) at liganded lysine Q96EL2_K94: sol, 231
T2 construct: isoTOP-ABPP experiments performed in cell lysates (in vitro); endogenous in cells; host or cells: soluble proteome of human cancer cell lines (MDA-MB-231; Ramos and Jurkat also prepared)
Experimental: as §1, §2, §3, §4

[3] = biological target: T3, NAA25 N-alpha-acetyltransferase 25, NatB auxiliary subunit (Homo sapiens, UniProt Q14CX7); settings: 50 uM, in vitro
T3 construct: isoTOP-ABPP experiments performed in cell lysates (in vitro); endogenous in cells; host or cells: soluble proteome of human cancer cell lines (MDA-MB-231; Ramos and Jurkat also prepared)
T3 sequence (Q14CX7 whole entry): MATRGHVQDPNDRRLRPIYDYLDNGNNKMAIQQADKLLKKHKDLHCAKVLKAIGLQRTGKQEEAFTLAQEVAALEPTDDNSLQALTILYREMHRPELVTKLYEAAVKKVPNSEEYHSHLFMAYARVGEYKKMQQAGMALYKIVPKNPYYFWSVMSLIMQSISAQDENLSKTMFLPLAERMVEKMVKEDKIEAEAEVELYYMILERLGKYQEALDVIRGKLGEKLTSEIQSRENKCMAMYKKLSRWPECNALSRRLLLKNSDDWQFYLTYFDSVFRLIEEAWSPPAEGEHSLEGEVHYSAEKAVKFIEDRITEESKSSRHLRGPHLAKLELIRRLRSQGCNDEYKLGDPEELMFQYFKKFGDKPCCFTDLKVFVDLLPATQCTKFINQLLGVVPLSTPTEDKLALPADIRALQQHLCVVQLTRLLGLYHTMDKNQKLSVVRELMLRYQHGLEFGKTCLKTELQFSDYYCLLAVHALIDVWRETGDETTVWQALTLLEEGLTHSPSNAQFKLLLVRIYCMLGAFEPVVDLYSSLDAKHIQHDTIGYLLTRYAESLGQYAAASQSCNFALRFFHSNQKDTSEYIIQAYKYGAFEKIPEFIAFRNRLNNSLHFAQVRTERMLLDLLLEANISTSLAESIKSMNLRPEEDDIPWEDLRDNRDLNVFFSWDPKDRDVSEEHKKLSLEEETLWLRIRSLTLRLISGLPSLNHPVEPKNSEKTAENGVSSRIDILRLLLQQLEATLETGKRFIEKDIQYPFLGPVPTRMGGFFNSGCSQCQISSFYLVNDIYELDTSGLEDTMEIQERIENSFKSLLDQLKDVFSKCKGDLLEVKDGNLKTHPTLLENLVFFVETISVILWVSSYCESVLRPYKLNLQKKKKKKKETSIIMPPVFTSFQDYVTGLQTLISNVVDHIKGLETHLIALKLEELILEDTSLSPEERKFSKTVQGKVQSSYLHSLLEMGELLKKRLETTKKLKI
Experimental: as §1, §2, §3, §4

[4] = biological target: T4, GLUD1 Glutamate dehydrogenase 1, mitochondrial (Homo sapiens, UniProt P00367); settings: for isoTOP-ABPP ratio (R) at liganded lysine P00367_K480: sol, 231
T4 construct: isoTOP-ABPP experiments performed in cell lysates (in vitro); endogenous in cells; host or cells: MDA-MB-231 soluble lysate
T4 sequence (P00367 54-558): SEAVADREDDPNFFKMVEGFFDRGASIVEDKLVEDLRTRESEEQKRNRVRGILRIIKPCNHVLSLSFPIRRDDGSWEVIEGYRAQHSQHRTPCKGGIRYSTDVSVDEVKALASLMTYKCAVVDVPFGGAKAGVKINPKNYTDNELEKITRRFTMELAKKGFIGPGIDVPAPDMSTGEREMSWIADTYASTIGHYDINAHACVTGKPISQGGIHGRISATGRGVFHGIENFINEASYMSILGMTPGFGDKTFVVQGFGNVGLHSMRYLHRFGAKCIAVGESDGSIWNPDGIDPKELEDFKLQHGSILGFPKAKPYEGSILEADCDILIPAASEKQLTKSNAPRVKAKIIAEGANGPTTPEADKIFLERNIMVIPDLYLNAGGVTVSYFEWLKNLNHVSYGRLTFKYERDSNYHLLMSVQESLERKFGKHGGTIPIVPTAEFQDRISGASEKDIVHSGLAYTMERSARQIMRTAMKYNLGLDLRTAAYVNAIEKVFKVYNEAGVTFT
Experimental: as §1, §2, §3, §4

[5] = biological target: T5, ERAP1 Endoplasmic reticulum aminopeptidase 1 (Homo sapiens, UniProt Q9NZ08); settings: for isoTOP-ABPP ratio (R) at liganded lysine Q9NZ08_K685: sol, 231
T5 construct: endogenous in cells; host or cells: MDA-MB-231 lysate
T5 sequence (Q9NZ08 whole entry): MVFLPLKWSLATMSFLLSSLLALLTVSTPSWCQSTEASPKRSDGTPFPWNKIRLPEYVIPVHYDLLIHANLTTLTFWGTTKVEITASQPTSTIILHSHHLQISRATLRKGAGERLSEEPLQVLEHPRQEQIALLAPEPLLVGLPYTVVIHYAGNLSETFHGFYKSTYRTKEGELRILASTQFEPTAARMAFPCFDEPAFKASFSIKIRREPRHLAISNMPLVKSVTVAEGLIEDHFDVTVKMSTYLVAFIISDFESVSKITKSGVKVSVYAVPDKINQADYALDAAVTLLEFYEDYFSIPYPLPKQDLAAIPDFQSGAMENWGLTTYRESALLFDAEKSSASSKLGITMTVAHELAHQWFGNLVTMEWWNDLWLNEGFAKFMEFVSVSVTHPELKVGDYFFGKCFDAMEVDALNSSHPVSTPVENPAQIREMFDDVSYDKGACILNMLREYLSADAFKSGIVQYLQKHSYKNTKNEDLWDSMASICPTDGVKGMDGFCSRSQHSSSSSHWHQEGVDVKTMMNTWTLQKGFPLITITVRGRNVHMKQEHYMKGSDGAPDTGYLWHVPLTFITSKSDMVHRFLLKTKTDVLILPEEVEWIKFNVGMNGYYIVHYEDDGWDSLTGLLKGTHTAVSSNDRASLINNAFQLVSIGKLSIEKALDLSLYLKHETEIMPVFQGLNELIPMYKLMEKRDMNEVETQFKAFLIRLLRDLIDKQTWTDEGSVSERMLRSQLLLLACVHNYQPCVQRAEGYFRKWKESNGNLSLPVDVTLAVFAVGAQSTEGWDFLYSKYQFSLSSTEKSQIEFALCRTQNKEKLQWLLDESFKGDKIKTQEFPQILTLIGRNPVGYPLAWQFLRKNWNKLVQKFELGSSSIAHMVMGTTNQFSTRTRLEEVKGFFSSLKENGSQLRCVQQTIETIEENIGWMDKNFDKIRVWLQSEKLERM
Experimental: as §1, §2, §3, §4

[6] = biological target: T6, DCTN2 Dynactin subunit 2 (Homo sapiens, UniProt Q13561); settings: for isoTOP-ABPP ratio (R) at liganded lysine Q13561_K175: 50 uM, in vitro, sol, 231
T6 construct: isoTOP-ABPP experiments performed in cell lysates (in vitro); endogenous in cells; host or cells: soluble proteome of human cancer cell lines (MDA-MB-231, Ramos, Jurkat)
T6 sequence (Q13561 whole entry): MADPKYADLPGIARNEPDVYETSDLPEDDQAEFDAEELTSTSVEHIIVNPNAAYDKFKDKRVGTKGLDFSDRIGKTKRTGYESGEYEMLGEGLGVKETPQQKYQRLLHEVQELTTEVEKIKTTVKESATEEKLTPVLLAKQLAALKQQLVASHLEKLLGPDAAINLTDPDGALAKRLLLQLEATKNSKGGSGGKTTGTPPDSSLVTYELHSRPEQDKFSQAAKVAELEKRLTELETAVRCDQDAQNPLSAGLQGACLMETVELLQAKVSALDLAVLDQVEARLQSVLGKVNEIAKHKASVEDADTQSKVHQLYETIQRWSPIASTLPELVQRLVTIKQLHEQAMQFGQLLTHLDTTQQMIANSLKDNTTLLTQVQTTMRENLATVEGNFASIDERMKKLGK
Experimental: as §1, §2, §3, §4

[7] = biological target: T7, TRMT10C Mitochondrial ribonuclease P protein 1 (Homo sapiens, UniProt Q7L0Y3); settings: for isoTOP-ABPP ratio (R) at liganded lysine Q7L0Y3_K325: 50 uM, in vitro, sol, 231
T7 construct: isoTOP-ABPP experiments performed in cell lysates (in vitro); endogenous in cells; host or cells: soluble proteome of human cancer cell lines (MDA-MB-231; Ramos and Jurkat also prepared)
T7 sequence (Q7L0Y3 40-403): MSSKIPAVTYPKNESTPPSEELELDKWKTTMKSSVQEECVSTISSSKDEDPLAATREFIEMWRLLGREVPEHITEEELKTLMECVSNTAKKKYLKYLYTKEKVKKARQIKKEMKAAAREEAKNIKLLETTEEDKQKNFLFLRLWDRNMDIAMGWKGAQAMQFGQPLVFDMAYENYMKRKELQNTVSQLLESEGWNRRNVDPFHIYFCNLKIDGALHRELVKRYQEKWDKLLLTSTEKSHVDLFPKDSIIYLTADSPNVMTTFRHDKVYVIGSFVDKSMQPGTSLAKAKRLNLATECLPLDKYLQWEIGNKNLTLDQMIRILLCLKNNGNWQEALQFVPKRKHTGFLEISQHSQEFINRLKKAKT
Experimental: as §1, §2, §3, §4

| Compound | isoTOP-ABPP ratio (R) at liganded lysine Q8N163_K97 [1] | isoTOP-ABPP ratio (R) at liganded lysine Q8N163_K112 [1] | isoTOP-ABPP ratio (R) at liganded lysine Q13561_K175 [6] | isoTOP-ABPP ratio (R) at liganded lysine Q96EL2_K94 [2] | isoTOP-ABPP ratio (R) at liganded lysine P00367_K480 ([4]; 50 uM, in vitro) | isoTOP-ABPP ratio (R) at liganded lysine Q9NZ08_K685 ([5]; 50 uM, in vitro) | isoTOP-ABPP ratio (R) at liganded lysine Q7L0Y3_K325 [7] | further results |
| --- | --- | --- | --- | --- | --- | --- | --- | --- |
| O=C(CCc1cn(-c2ccccc2)nc1-c1ccccc1)Oc1c(F)c(F)c(F)c(F)c1F [fragment 19, Pentafluorophenyl 3-(1,3-diphenyl-1H-pyrazol-4-yl)propanoate] | – | – | – | – | – | – | – | R value (DMSO/fragment) for probe 1 labeling ([1]; Q8N163_K97): 0.9; R value (DMSO/fragment) for probe 1 labeling ([1]; Q8N163_K112): 1.2; R value (DMSO/fragment) for probe 1 labeling ([2]; Q96EL2_K94, 231 sol): 1.4; R value (DMSO/fragment) for probe 1 labeling ([3]; Q14CX7_K575, 231 sol): 1.0; R value (DMSO/fragment) for probe 1 labeling ([4]; P00367_K480, 50 uM, 231 sol, in vitro): 1.0; R value (DMSO/fragment) for probe 1 labeling ([5]; Q9NZ08_K685, 50 uM, 231 sol, in vitro): 1.1 |
| O=C(Oc1ccc([N+](=O)[O-])cc1[N+](=O)[O-])C(c1ccccc1)(c1ccccc1)c1ccccc1 [fragment 42, 2,4-Dinitrophenyl 2,2,2-triphenylacetate] | 1.0 | 1.1 | 0.9 | 1.5 | 1.1 | 1.0 | 1.0 | – |
| CC(C)(C)OC(=O)NCCCC(=O)Oc1ccc([N+](=O)[O-])cc1[N+](=O)[O-] [fragment 41, 2,4-Dinitrophenyl 4-((tert-butoxycarbonyl)amino)butanoate] | 1.0 | 1.3 | 1.3 | 1.3 | 3.7 | 1.3 | 0.9 | – |
| O=C(Oc1c(F)c(F)c(C(F)(F)F)c(F)c1F)c1cc(C(F)(F)F)cc(C(F)(F)F)c1 [fragment 47, 2,3,5,6-Tetrafluoro-4-(trifluoromethyl)phenyl 3,5-bis(trifluoromethyl)benzoate] | – | – | – | – | – | – | – | isoTOP-ABPP ratio, lysine Q8N163_K97 ([1]; 50 uM_231_sol_in vitro): 0.9; isoTOP-ABPP ratio, lysine Q8N163_K112 ([1]; 50 uM_231_sol_in vitro): 1.5; isoTOP-ABPP ratio, lysine Q13561_K175 ([6]; 50 uM_231_sol_in vitro): 1.0; isoTOP-ABPP ratio, lysine P00367_K480 ([4]; 50 uM_231_sol_in vitro, possible other lysine P00367_K477): 2.0; isoTOP-ABPP ratio, lysine Q9NZ08_K685 ([5]; 50 uM_231_sol_in vitro): 1.3; isoTOP-ABPP ratio, lysine Q7L0Y3_K325 ([7]; 50 uM_231_sol_in vitro): 1.1 |
| O=C(Oc1ccc([N+](=O)[O-])cc1[N+](=O)[O-])C1CCN(C(=O)OCc2ccccc2)CC1 [fragment 34, 1-Benzyl 4-(2,4-dinitrophenyl) piperidine-1,4-dicarboxylate] | 1.3 | 1.0 | 1.7 | 1.4 | 1.3 | 1.7 | 1.0 | – |
| O=C(CCc1coc2cc(F)ccc2c1=O)Oc1ccc([N+](=O)[O-])cc1[N+](=O)[O-] [fragment 36, 2,4-Dinitrophenyl 3-(7-fluoro-4-oxo-4H-chromen-3-yl)propanoate] | 0.9 | 1.1 | – | 2.8 | 3.2 | 1.1 | – | isoTOP-ABPP ratio (R) at liganded lysine Q14CX7_K575 ([3]; sol, 231): 1.5 |

Source: patent publication US20210255193A1, “LYSINE REACTIVE PROBES AND USES THEREOF” (The Scripps Research Institute, priority 2017, published 2021)
